# Columns and labels:
# [1] = test system: B16 murine melanoma tumours; test: Ex vivo biodistribution study for compound [125I](1); assay type: in vivo, C57BL/6J mice
# Description: Twenty four B16BL6 primary melanoma bearing mice were intravenously injected with 2.2 MBq of [^1251]1 and sacrificed 1 h, 3 h, 6 h, 24 h, 72 h and 10 days after tracer injection (n=4/time point). Tumours and major organs and tissues were promptly excised, harvested, weighted and their radioactivity counted using a calibrated γ-counter with a […] energy window. After radioactive decay correction, results were expressed as percentage of injected dose per gram of tissue (% ID/g).
# [2] = Metabolism of compound [125I](1); assay type: in vivo, mice
# Description: 24 primary melanoma bearing mice were intravenously injected with 2.2 MBq of [^1251](1) and sacrificed 1 h, 3 h, 6 h, 24 h, 72 h and 10 days after tracer injection. To determine the metabolic stability of [^1251](1), blood, tumour, eyes, liver, kidney and urine samples were collected at each time point […]. Faeces were collected between 0-24 h and 24-48 h. Blood was immediately diluted in 5 mL of methanol/NH4OH 99.8:0.2 and centrifuged for 5 min at 3,000 rpm. Tumour, eyes, liver, kidneys and faeces were suspended in 5 mL of methanol/NH4OH 99.8:0.2, homogenized using GentleMACS™ dissociator (Miltenyi Biotec, Bergisch Gladbach, Germany) and centrifuged for 5 min at 3,000 rpm (repeated 2 times). Urines were analysed without any treatment. The extraction efficiency was determined by measuring the radioactivity of supernatants and precipitates. Supernatants were passed through a 0.22 μm Millipore filter and then concentrated to a volume between 200 and 500 μL before injection (duplicate) onto the analytical HPLC(C18 column; solvent A: H2O (0.2% NH4OH); solvent B: MeOH (0.2% NH4OH); Gradient elution: 0-5 min: 90 to 70% of A (Q=0.5 mL·min^−1); 5-30 min: 70 to 20% of A (Q=0.9 mL·min^−1); 30-32 min: 10% of A (Q=0.9 mL·min^−1)).
smiles,measurement,setting,value
CCN(CCNC(=O)c1cnc2cc([125I])ccc2n1)CCOCCOCCOCCF [[^125I](1)],% ID/g Adipose,[1]; 1 h p.i.,0.61 ± 0.01 % ID/g
same,% ID/g Blood,[1]; 1 h p.i.,0.97 ± 0.07 % ID/g
same,% ID/g Bones,[1]; 1 h p.i.,0.79 ± 0.09 % ID/g
same,% ID/g Brain,[1]; 1 h p.i.,0.27 ± 0.03 % ID/g
same,% ID/g Ceacum,[1]; 1 h p.i.,4.97 ± 3.01 % ID/g
same,% ID/g Colon,[1]; 1 h p.i.,4.51 ± 4.40 % ID/g
same,% ID/g Heart,[1]; 1 h p.i.,1.17 ± 0.07 % ID/g
same,% ID/g Kidney,[1]; 1 h p.i.,4.75 ± 0.71 % ID/g
same,% ID/g Liver,[1]; 1 h p.i.,6.33 ± 1.69 % ID/g
same,% ID/g Lung,[1]; 1 h p.i.,3.12 ± 0.42 % ID/g
same,% ID/g Muscle,[1]; 1 h p.i.,0.55 ± 0.16 % ID/g
same,% ID/g Pancreas,[1]; 1 h p.i.,2.96 ± 0.15 % ID/g
same,% ID/g Skin,[1]; 1 h p.i.,1.04 ± 0.06 % ID/g
same,% ID/g Small intestine,[1]; 1 h p.i.,16.68 ± 10.70 % ID/g
same,% ID/g Spleen,[1]; 1 h p.i.,2.14 ± 0.20 % ID/g
same,% ID/g Stomach,[1]; 1 h p.i.,9.2 ± 1.49 % ID/g
same,% ID/g Testes,[1]; 1 h p.i.,0.68 ± 0.19 % ID/g
same,% ID/g Adipose,[1]; 3 h p.i.,0.36 ± 0.05 % ID/g
same,% ID/g Blood,[1]; 3 h p.i.,0.82 ± 0.05 % ID/g
same,% ID/g Bones,[1]; 3 h p.i.,0.48 ± 0.03 % ID/g
same,% ID/g Brain,[1]; 3 h p.i.,0.15 ± 0.01 % ID/g
same,% ID/g Ceacum,[1]; 3 h p.i.,25.73 ± 7.88 % ID/g
same,% ID/g Colon,[1]; 3 h p.i.,21.19 ± 18.02 % ID/g
same,% ID/g Heart,[1]; 3 h p.i.,0.77 ± 0.05 % ID/g
same,% ID/g Kidney,[1]; 3 h p.i.,3.14 ± 1.27 % ID/g
same,% ID/g Liver,[1]; 3 h p.i.,3.37 ± 0.14 % ID/g
same,% ID/g Lung,[1]; 3 h p.i.,2.14 ± 0.27 % ID/g
same,% ID/g Muscle,[1]; 3 h p.i.,0.30 ± 0.04 % ID/g
same,% ID/g Pancreas,[1]; 3 h p.i.,1.48 ± 0.07 % ID/g
same,% ID/g Skin,[1]; 3 h p.i.,1.34 ± 0.72 % ID/g
same,% ID/g Small intestine,[1]; 3 h p.i.,4.16 ± 0.70 % ID/g
same,% ID/g Spleen,[1]; 3 h p.i.,2.37 ± 2.58 % ID/g
same,% ID/g Stomach,[1]; 3 h p.i.,4.53 ± 0.94 % ID/g
same,% ID/g Testes,[1]; 3 h p.i.,0.54 ± 0.03 % ID/g
same,% ID/g Adipose,[1]; 6 h p.i.,0.19 ± 0.06 % ID/g
same,% ID/g Blood,[1]; 6 h p.i.,0.62 ± 0.20 % ID/g
same,% ID/g Bones,[1]; 6 h p.i.,0.30 ± 0.10 % ID/g
same,% ID/g Brain,[1]; 6 h p.i.,0.08 ± 0.03 % ID/g
same,% ID/g Ceacum,[1]; 6 h p.i.,23.31 ± 16.47 % ID/g
same,% ID/g Colon,[1]; 6 h p.i.,15.92 ± 9.97 % ID/g
same,% ID/g Heart,[1]; 6 h p.i.,0.46 ± 0.17 % ID/g
same,% ID/g Kidney,[1]; 6 h p.i.,1.56 ± 0.82 % ID/g
same,% ID/g Liver,[1]; 6 h p.i.,2.02 ± 0.64 % ID/g
same,% ID/g Lung,[1]; 6 h p.i.,1.04 ± 0.37 % ID/g
same,% ID/g Muscle,[1]; 6 h p.i.,0.17 ± 0.07 % ID/g
same,% ID/g Pancreas,[1]; 6 h p.i.,0.65 ± 0.18 % ID/g
same,% ID/g Skin,[1]; 6 h p.i.,0.62 ± 0.31 % ID/g
same,% ID/g Small intestine,[1]; 6 h p.i.,2.23 ± 1.35 % ID/g
same,% ID/g Spleen,[1]; 6 h p.i.,6.45 ± 8.15 % ID/g
same,% ID/g Stomach,[1]; 6 h p.i.,7.39 ± 4.08 % ID/g
same,% ID/g Testes,[1]; 6 h p.i.,0.36 ± 0.08 % ID/g
same,% ID/g Adipose,[1]; 24 h p.i.,0.028 ± 0.00 % ID/g
same,% ID/g Blood,[1]; 24 h p.i.,0.06 ± 0.01 % ID/g
same,% ID/g Bones,[1]; 24 h p.i.,0.03 ± 0.00 % ID/g
same,% ID/g Brain,[1]; 24 h p.i.,0.01 ± 0.01 % ID/g
same,% ID/g Ceacum,[1]; 24 h p.i.,0.41 ± 0.13 % ID/g
same,% ID/g Colon,[1]; 24 h p.i.,0.69 ± 0.23 % ID/g
same,% ID/g Heart,[1]; 24 h p.i.,0.16 ± 0.06 % ID/g
same,% ID/g Kidney,[1]; 24 h p.i.,0.15 ± 0.02 % ID/g
same,% ID/g Liver,[1]; 24 h p.i.,0.46 ± 0.10 % ID/g
same,% ID/g Lung,[1]; 24 h p.i.,0.08 ± 0.01 % ID/g
same,% ID/g Muscle,[1]; 24 h p.i.,0.02 ± 0.00 % ID/g
same,% ID/g Pancreas,[1]; 24 h p.i.,0.05 ± 0.01 % ID/g
same,% ID/g Skin,[1]; 24 h p.i.,0.17 ± 0.00 % ID/g
same,% ID/g Small intestine,[1]; 24 h p.i.,0.12 ± 0.03 % ID/g
same,% ID/g Spleen,[1]; 24 h p.i.,0.06 ± 0.01 % ID/g
same,% ID/g Stomach,[1]; 24 h p.i.,0.54 ± 0.25 % ID/g
same,% ID/g Testes,[1]; 24 h p.i.,0.03 ± 0.01 % ID/g
same,% ID/g Adipose,[1]; 72 h p.i.,0.02 ± 0.00 % ID/g
same,% ID/g Bones,[1]; 72 h p.i.,0.02 ± 0.01 % ID/g
same,% ID/g Brain,[1]; 72 h p.i.,0.01 ± 0.00 % ID/g
same,% ID/g Ceacum,[1]; 72 h p.i.,0.33 ± 0.29 % ID/g
same,% ID/g Colon,[1]; 72 h p.i.,0.25 ± 0.10 % ID/g
same,% ID/g Heart,[1]; 72 h p.i.,0.08 ± 0.02 % ID/g
same,% ID/g Kidney,[1]; 72 h p.i.,0.24 ± 0.04 % ID/g
same,% ID/g Liver,[1]; 72 h p.i.,0.08 ± 0.00 % ID/g
same,% ID/g Lung,[1]; 72 h p.i.,0.05 ± 0.01 % ID/g
same,% ID/g Muscle,[1]; 72 h p.i.,0.02 ± 0.00 % ID/g
same,% ID/g Pancreas,[1]; 72 h p.i.,0.03 ± 0.01 % ID/g
same,% ID/g Skin,[1]; 72 h p.i.,0.50 ± 0.26 % ID/g
same,% ID/g Small intestine,[1]; 72 h p.i.,0.07 ± 0.03 % ID/g
same,% ID/g Spleen,[1]; 72 h p.i.,0.52 ± 0.96 % ID/g
same,% ID/g Stomach,[1]; 72 h p.i.,0.16 ± 0.05 % ID/g
same,% ID/g Testes,[1]; 72 h p.i.,0.02 ± 0.00 % ID/g
same,% ID/g Adipose,[1]; 10 d p.i.,0.01 ± 0.01 % ID/g
same,% ID/g Bones,[1]; 10 d p.i.,0.01 ± 0.01 % ID/g
same,% ID/g Brain,[1]; 10 d p.i.,0.00 ± 0.00 % ID/g
same,% ID/g Ceacum,[1]; 10 d p.i.,0.02 ± 0.02 % ID/g
same,% ID/g Colon,[1]; 10 d p.i.,0.02 ± 0.01 % ID/g
same,% ID/g Heart,[1]; 10 d p.i.,0.03 ± 0.01 % ID/g
same,% ID/g Kidney,[1]; 10 d p.i.,0.04 ± 0.03 % ID/g
same,% ID/g Liver,[1]; 10 d p.i.,0.01 ± 0.00 % ID/g
same,% ID/g Lung,[1]; 10 d p.i.,0.01 ± 0.01 % ID/g
same,% ID/g Muscle,[1]; 10 d p.i.,0.01 ± 0.06 % ID/g
same,% ID/g Pancreas,[1]; 10 d p.i.,0.02 ± 0.03 % ID/g
same,% ID/g Skin,[1]; 10 d p.i.,0.05 ± 0.06 % ID/g
same,% ID/g Small intestine,[1]; 10 d p.i.,0.01 ± 0.00 % ID/g
same,% ID/g Spleen,[1]; 10 d p.i.,0.23 ± 0.41 % ID/g
same,% ID/g Stomach,[1]; 10 d p.i.,0.03 ± 0.01 % ID/g
same,% ID/g Testes,[1]; 10 d p.i.,0.00 ± 0.00 % ID/g
same,% of radioactivity,"[2]; Blood, 1 h after [125I](1) injection",2.0 ± 2.8%
same,% of radioactivity,"[2]; Blood, 3 h after [125I](1) injection",0.0 ± 0.0%
same,% of radioactivity,"[2]; Blood, 6 h after [125I](1) injection",3.5 ± 4.9%
same,% of radioactivity,"[2]; Eyes, 1 h after [125I](1) injection",90.5 ± 0.7%
same,% of radioactivity,"[2]; Eyes, 3 h after [125I](1) injection",94.5 ± 2.1%
same,% of radioactivity,"[2]; Eyes, 6 h after [125I](1) injection",96.0 ± 5.7%
same,% of radioactivity,"[2]; Eyes, 24 h after [125I](1) injection",90.0 ± 2.8%
same,% of radioactivity,"[2]; Eyes, 72 h after [125I](1) injection",96.5 ± 4.9%
same,% of radioactivity,"[2]; Eyes, 10 d after [125I](1) injection",100.0 ± 0.0%
same,% of radioactivity,"[2]; Feces, (grid: 3 h; faeces collected 24-48 h)",2.5 ± 0.7%
same,% of radioactivity,"[2]; Feces, first value column (grid: 1 h; faeces collected 0-24 h)",5.0 ± 0.0%
same,% of radioactivity,"[2]; Kidney, 1 h after [125I](1) injection",12.5 ± 2.1%
same,% of radioactivity,"[2]; Kidney, 3 h after [125I](1) injection",6.1 ± 2.9%
same,% of radioactivity,"[2]; Kidney, 6 h after [125I](1) injection",0.0 ± 0.0%
same,% of radioactivity,"[2]; Liver, 1 h after [125I](1) injection",27.5 ± 0.7%
same,% of radioactivity,"[2]; Liver, 3 h after [125I](1) injection",24.0 ± 4.2%
same,% of radioactivity,"[2]; Liver, 6 h after [125I](1) injection",8.5 ± 0.7%
same,% of radioactivity,"[2]; Liver, 24 h after [125I](1) injection",0.0 ± 0.0%
same,% of radioactivity,"[2]; Tumour, 1 h after [125I](1) injection",87.0 ± 1.4%
same,% of radioactivity,"[2]; Tumour, 3 h after [125I](1) injection",81.0 ± 1.4%
same,% of radioactivity,"[2]; Tumour, 6 h after [125I](1) injection",77.0 ± 0.0%
same,% of radioactivity,"[2]; Tumour, 24 h after [125I](1) injection",92.5 ± 9.2%
same,% of radioactivity,"[2]; Tumour, 72 h after [125I](1) injection",91.5 ± 3.5%
same,% of radioactivity,"[2]; Tumour, 10 d after [125I](1) injection",100.0 ± 0.0%
same,% of radioactivity,"[2]; Urine, 1 h after [125I](1) injection",12.6 ± 0.5%
same,% of radioactivity,"[2]; Urine, 3 h after [125I](1) injection",0.0 ± 0.0%
same,% of radioactivity,"[2]; Urine, 6 h after [125I](1) injection",0.0 ± 0.0%
same,% of radioactivity,"[2]; Urine, 24 h after [125I](1) injection",0.0 ± 0.0%
same,% of radioactivity,"[2]; Urine, 72 h after [125I](1) injection",0.0 ± 0.0%

# From US20150079000A1, “Labelled Quinoxaline Derivatives as Multimodal Radiopharmaceuticals and Their Precursors” (INSTITUT NATIONAL DE LA SANTET DE LA RECHERCHE MEDICALE, priority 2012, published 2015)
